Laboratory results published in article PMC7830924, “Discovery of Natural Inhibitors of Cholinesterases from Hydrangea: In Vitro and In Silico Approaches” (Nutrients, 2021).

What was measured:
BChE = molecular target: T1, BChE (Homo sapiens, UniProt P06276); assay: BChE inhibition assay and kinetic study; type: biochemical; conditions: for BChE Inhibition Type: determined by Dixon and Lineweaver–Burk plots; for IC50: mean ± S.D. of triplicate experiments, substrate butyrylthiocholine chloride; for Ki: obtained by Dixon plot
T1 construct: purchased Sigma-Aldrich
T1 sequence (P06276 29-602): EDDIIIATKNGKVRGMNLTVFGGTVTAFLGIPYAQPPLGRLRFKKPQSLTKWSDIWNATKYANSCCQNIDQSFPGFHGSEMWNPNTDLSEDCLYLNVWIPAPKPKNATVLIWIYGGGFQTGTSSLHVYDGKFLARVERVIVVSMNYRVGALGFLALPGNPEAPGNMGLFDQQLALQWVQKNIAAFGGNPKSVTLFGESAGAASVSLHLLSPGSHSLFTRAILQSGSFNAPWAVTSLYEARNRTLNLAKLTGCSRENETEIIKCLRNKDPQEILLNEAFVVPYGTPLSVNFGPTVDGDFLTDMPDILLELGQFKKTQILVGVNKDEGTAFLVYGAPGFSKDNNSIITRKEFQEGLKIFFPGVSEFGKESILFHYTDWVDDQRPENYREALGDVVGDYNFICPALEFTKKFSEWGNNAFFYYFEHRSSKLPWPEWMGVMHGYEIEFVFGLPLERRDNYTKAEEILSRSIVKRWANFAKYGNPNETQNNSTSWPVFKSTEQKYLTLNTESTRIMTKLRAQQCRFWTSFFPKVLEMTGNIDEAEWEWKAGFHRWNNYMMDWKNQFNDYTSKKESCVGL
Procedure: (§1) Cholinesterases, trypsin, chymotrypsin, elastase and BACE1, assays were performed according to the previous methods. AChE, BChE, trypsin, chymotrypsin and elastase were assayed according to the manual depicted in the reference using ACh iodide, butyrylthiocholine chloride, N-benzoyl-L-Arg-pNA, N-benzoyl-L-Tyr-pNA and N-succinyl-Ala-Ala-Ala-pNA as substrates, respectively. BACE1 assay was achieved using a Rh-[…]-Quencher as a substrate. […] The inhibitory constant (Ki) was obtained by Dixon plot, and Vmax and Km were defined by Lineweaver–Burk plots. These kinetic parameters were calculated using the SigmaPlot™ (version 12.3, Systat Software, Inc., San Jose, CA, USA).

BACE1 = system: T2, BACE1; assay: BACE1 FRET assay (enzyme selectivity); type: biochemical; conditions: mean ± SD of triplicate
T2 construct: purchased Pan Vera
Procedure: A beta-site APP cleaving enzyme 1 (BACE1) fluorescence resonance energy transfer (FRET) assay kit was purchased from Pan Vera (Madison, WI, USA).
as §1

AChE = molecular target: T3, AChE (Homo sapiens, UniProt P22303); assay: biochemical; conditions: for AChE Inhibition Type: determined by Dixon and Lineweaver–Burk plots; for IC50: mean ± S.D. of triplicate experiments, substrate ACh iodide; for Ki: obtained by Dixon plot
T3 construct: purchased Sigma-Aldrich
T3 sequence (P22303 32-614): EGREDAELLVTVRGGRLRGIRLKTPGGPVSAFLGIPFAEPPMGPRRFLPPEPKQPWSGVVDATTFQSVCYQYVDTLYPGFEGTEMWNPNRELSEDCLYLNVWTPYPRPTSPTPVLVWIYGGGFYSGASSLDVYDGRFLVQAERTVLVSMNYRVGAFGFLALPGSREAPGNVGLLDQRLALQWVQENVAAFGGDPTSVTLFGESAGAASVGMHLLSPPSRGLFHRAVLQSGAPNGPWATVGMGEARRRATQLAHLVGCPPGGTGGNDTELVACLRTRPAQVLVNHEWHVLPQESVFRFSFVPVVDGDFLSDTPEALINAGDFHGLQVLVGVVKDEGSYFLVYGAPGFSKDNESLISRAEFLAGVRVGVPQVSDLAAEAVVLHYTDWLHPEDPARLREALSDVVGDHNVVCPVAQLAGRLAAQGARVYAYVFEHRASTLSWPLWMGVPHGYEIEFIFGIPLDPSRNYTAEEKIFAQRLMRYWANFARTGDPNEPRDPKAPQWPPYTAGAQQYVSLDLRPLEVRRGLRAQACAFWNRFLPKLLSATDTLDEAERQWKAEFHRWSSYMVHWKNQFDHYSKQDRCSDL
Procedure: as §1

Chymotrypsin = system: T4, Chymotrypsin; assay: Chymotrypsin inhibition assay (enzyme selectivity); type: biochemical; conditions: mean ± SD of triplicate
T4 construct: purchased Sigma-Aldrich
Procedure: as §1

Elastase = Elastase inhibition assay (enzyme selectivity); type: biochemical; conditions: mean ± SD of triplicate
Procedure: as §1

Trypsin = Trypsin inhibition assay (enzyme selectivity); type: biochemical; conditions: mean ± SD of triplicate
Procedure: as §1

Structure (SMILES)	BChE Inhibition Type (BChE)	Inhibitory activity (%) against BACE1 (BACE1; compound 50 µM)	Inhibitory activity (%) against BACE1 (BACE1; compound 100 µM)	AChE Inhibition Type (AChE)	IC50 (AChE)	Ki (AChE)	IC50 (BChE)	Ki (BChE)	Inhibitory activity (%) against Chymotrypsin (Chymotrypsin; compound 50 µM)	Inhibitory activity (%) against Chymotrypsin (Chymotrypsin; compound 100 µM)	Inhibitory activity (%) against Elastase (Elastase; compound 50 µM)	Inhibitory activity (%) against Elastase (Elastase; compound 100 µM)	Inhibitory activity (%) against Trypsin (Trypsin; compound 50 µM)	Inhibitory activity (%) against Trypsin (Trypsin; compound 100 µM)
COc1ccc2c3c1O[C@H]1C[C@@H](O)C=C[C@@]31CCN(C)C2 [Galantamine, reference compound]	Competitive	–	–	–	–	–	–	–	–	–	–	–	–	–
O=C1OC(c2ccc(O)cc2)Cc2cc(O)cc(O)c21 (centres unmarked) [TC, thunberginol C]	Non-competitive	25.81 ± 3.11%	28.68 ± 1.87%	Non-competitive	42 ± 1.06 µM	45.6 µM	42.4 ± 3.67 µM	49.2 µM	6.04 ± 2.42%	8.50 ± 1.40%	1.89 ± 1.09%	0.42 ± 0.36%	−0.27 ± 1.51%	0.07 ± 2.00%
CC(=O)OC[C@H]1O[C@@H](Oc2cccc3c2C(=O)O[C@@H](c2ccc(OC(C)=O)cc2)C3)[C@H](OC(C)=O)[C@@H](OC(C)=O)[C@@H]1OC(C)=O [HGP, hydrangenol 8-O-glucoside pentaacetate]	Non-competitive	20.02 ± 0.52%	25.21 ± 1.60%	Non-competitive	22.7 ± 1.63 µM	36.1 µM	41 ± 3.03 µM	44.9 µM	7.16 ± 3.38%	5.15 ± 3.70%	3.77 ± 1.66%	1.47 ± 1.31%	1.26 ± 3.36%	3.12 ± 1.69%
